Results as given in ChEMBL document CHEMBL4219241, “Design, synthesis, and structure-activity relationships of novel imidazo[4,5-c]pyridine derivatives as potent non-nucleoside inhibitors of hepatitis C virus NS5B” (Bioorg Med Chem, 2018).

Experiments:
[1] = target: T1, RNA-directed RNA polymerase (Hepacivirus hominis, UniProt O39930); experiment: Inhibition of Hepatitis C virus genotype 1b NS5B RNA-dependent-RNA polymerase assessed as reduction in viral replication after 72 hrs by indirect immunofluorescence assay; parameters: species or system Hepatitis C virus subtype 1b
T1 sequence (O39930 whole entry): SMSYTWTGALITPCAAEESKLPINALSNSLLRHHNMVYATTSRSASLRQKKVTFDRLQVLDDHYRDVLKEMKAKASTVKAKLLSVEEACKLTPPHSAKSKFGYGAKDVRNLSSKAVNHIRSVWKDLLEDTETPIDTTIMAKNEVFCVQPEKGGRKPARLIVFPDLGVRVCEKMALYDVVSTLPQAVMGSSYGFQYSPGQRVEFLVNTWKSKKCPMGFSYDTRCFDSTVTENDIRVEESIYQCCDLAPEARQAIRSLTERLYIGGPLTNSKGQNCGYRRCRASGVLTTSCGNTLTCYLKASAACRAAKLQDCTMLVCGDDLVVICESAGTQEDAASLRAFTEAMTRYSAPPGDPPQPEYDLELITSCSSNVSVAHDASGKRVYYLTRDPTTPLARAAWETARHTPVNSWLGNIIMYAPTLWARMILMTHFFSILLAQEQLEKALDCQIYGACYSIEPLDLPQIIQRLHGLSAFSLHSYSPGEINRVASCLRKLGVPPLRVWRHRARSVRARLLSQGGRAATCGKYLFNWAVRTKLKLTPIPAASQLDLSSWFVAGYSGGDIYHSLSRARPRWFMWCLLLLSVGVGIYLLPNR

[2] = Tmax in Sprague-Dawley rat at 35 mg/kg, po administered via gavage by UPLC-MS analysis; format: ADME, organism-based; settings: in vivo
[3] = Terminal half life in Sprague-Dawley rat at 35 mg/kg, po administered via gavage by UPLC-MS analysis; format: ADME, organism-based; settings: in vivo, read-out: beta t1/2 (converted)
[4] = AUC (0 to infinity) in Sprague-Dawley rat at 35 mg/kg, po administered via gavage by UPLC-MS analysis; format: ADME, organism-based; parameters: dose 35 mg/kg, route oral, time infinity; settings: in vivo
[5] = Cmax in Sprague-Dawley rat at 35 mg/kg, po administered via gavage by UPLC-MS analysis; format: ADME, organism-based; parameters: dose 35 mg/kg, route oral; settings: in vivo
[6] = Apparent volume of distribution during terminal phase in Sprague-Dawley rat at 35 mg/kg, po administered via gavage by UPLC-MS analysis; format: ADME, organism-based; settings: in vivo, read-out: Vz/F
[7] = MRT (0 to infinity) in Sprague-Dawley rat at 35 mg/kg, po administered via gavage by UPLC-MS analysis; format: ADME, organism-based; settings: in vivo
[8] = Apparent clearance during terminal phase in Sprague-Dawley rat at 35 mg/kg, po administered via gavage by UPLC-MS analysis; format: ADME, organism-based; settings: in vivo, read-out: CLz/F (converted)
[9] = target: RNA-directed RNA polymerase (Hepacivirus hominis) (UniProt O39930); experiment: Potency index, ratio of sofosbuvir EC50 to test compound EC50 for inhibition of Hepatitis C virus genotype 1b NS5B RNA-dependent-RNA polymerase assessed as reduction in viral replication; settings: Hepatitis C virus subtype 1b
Chain of RNA-directed RNA polymerase (Hepacivirus hominis) (O39930 1-591): as the sequence (O39930 whole entry) above

[10] = target: T1, RNA-directed RNA polymerase; experiment: Inhibition of Hepatitis C virus genotype 1b NS5B RNA-dependent-RNA polymerase; parameters: species or system Hepatitis C virus subtype 1b

| SMILES | EC50 [1] | also measured |
| --- | --- | --- |
| Fc1ccccc1-c1nc2ccn(Cc3cn(Cc4nc5ccccc5n4-c4ccccc4)nn3)cc-2n1 | Not Active |  |
| Fc1ccccc1-c1nc2ccn(Cc3cn4cccnc4n3)cc-2n1 | Not Active |  |
| Cc1cc(C)n2cc(Cn3ccc4nc(-c5ccccc5F)nc-4c3)nc2n1 | Not Active |  |
| Cc1cc(C)n2nc(Cn3ccc4nc(-c5ccccc5F)nc-4c3)nc2n1 | Not Active |  |
| COc1ccc(-n2cc(Cn3ccc4nc(-c5ccccc5F)nc-4c3)nn2)cc1 |  | Tmax [2]: 1.33 h; half-life [3]: 2.88 h; AUC(0-inf) [4]: 72500 ng·h/mL; Cmax [5]: 22300 ng/mL; Vd/F [6]: 2.12 L/kg; MRT inf [7]: 2.18 h; CL/F [8]: 8.33 mL/min/kg |
| Cc1ccc(-n2c(Cn3ccc4nc(-c5ccccc5F)nc-4c3)nc3ccccc32)cc1 | Not Active |  |
| Fc1ccccc1-c1nc2ccn(Cc3cn(-c4ccccc4)nn3)cc-2n1 |  | Ratio EC50 [9]: 3 |
| Fc1ccccc1-c1nc2ccn(Cc3nc4ccccc4n3-c3cccc(C(F)(F)F)c3)cc-2n1 | Not Active |  |
| Fc1ccccc1-c1nc2ccn(Cc3cn(-c4cc(C(F)(F)F)cc(C(F)(F)F)c4)nn3)cc-2n1 | Not Active |  |
| Fc1ccccc1-c1nc2ccn(Cc3cn(Cc4nc5ccccc5n4-c4cccc(C(F)(F)F)c4)nn3)cc-2n1 | Not Active |  |
| Fc1ccccc1-c1nc2ccn(Cc3nc4ccccc4n3-c3ccccc3)cc-2n1 | Not Active |  |
| Fc1ccccc1-c1nc2ccn(Cc3nc4ccccc4n3-c3cccc(Cl)c3)cc-2n1 | Not Active |  |
| Fc1ccccc1-c1nc2ccn(Cc3ccc(-c4ccc(C(F)(F)F)cc4C(F)(F)F)nn3)cc-2n1 [TEGOBUVIR] |  | EC50 [10]: 2.9 nM |
